In test [1] the target is dihydrofolate reductase (DHFR) (Escherichia coli, UniProt P0ABQ4). In words: LDA screening of LOPAC library with DNA-linked trimethoprim probe. Type of test: binding. Particulars: FIG. 2f. The method, then: (§1) FIGS. 2A-2H show the application of LDA in quantifying compounds' IC50 and screening. […] IC50 of compound 1-3 determined by LDA (FIG. 2B) and FP assay (FIG. 2C). […] DNA samples with read numbers below 2 in sequencing were excluded.
(§2) Enrichment of the probes from the two groups were well distinguished (Z′ factor=0.77), indicating a robustness suitable for HTS (FIG. 1e). To further assess well-to-well variability, this experiment was repeated with separate incubation of samples in a well plate. A similar but slightly worse Z′ factor (Z′=0.54, Fig. SX) was observed. We then used this approach to screen the Library of Pharmacologically Active Compounds (LOPAC) library against dihydrofolate reductase (DHFR), a therapeutic target for treating infections (FIG. 2f). Hit compounds within the library displaces the DNA-linked trimethoprim, leading to lower enrichment of the DNA-trimethoprim.

The target of another test is DHFR (Escherichia coli, UniProt P0ABQ4). The experiment in a line: Validation of novel hit by FP assay (IC50). Type of test: binding. Particulars: validation of screening hit; FIG. 2g. The method, then:
as §1, §2

As to `CN(CCOc1ccc(C[C@H](Nc2ccccc2C(=O)c2ccccc2)C(=O)O)cc1)c1ccccn1` [GW1929], in test [1], the “probe recovery (enrichment of DNA-trimethoprim) in LOPAC screen” value is recorded as “low probe recovery”. Also, half-maximal inhibition at DHFR (IC50) was put at 7.9 µM.

Source of the values: US12669497B2, “Affinity labeling of DNA-linked ligands for high throughput ligand binding assays and the uses thereof” (Purdue Research Foundation, priority 2020, dated 2026).
